Measurements reported in patent US7625713B2, “Process for identifying a ligand that binds to the NEP binding site for the SMR1 pentapeptide” (Institut Pasteur, priority 2000, dated 2009).
Where a SMILES comes first, the peptide text is derived from it.

Target: T1, NEP (Rattus norvegicus, UniProt P07861)
T1 construct: incubations of membrane and fresh tissue slice preparations from nervous tissues; from tissue; host or cells: dorsal spinal cord of male Wistar rats (fresh slices or 100 000 x g membrane fraction)
T1 sequence (P07861 1-750): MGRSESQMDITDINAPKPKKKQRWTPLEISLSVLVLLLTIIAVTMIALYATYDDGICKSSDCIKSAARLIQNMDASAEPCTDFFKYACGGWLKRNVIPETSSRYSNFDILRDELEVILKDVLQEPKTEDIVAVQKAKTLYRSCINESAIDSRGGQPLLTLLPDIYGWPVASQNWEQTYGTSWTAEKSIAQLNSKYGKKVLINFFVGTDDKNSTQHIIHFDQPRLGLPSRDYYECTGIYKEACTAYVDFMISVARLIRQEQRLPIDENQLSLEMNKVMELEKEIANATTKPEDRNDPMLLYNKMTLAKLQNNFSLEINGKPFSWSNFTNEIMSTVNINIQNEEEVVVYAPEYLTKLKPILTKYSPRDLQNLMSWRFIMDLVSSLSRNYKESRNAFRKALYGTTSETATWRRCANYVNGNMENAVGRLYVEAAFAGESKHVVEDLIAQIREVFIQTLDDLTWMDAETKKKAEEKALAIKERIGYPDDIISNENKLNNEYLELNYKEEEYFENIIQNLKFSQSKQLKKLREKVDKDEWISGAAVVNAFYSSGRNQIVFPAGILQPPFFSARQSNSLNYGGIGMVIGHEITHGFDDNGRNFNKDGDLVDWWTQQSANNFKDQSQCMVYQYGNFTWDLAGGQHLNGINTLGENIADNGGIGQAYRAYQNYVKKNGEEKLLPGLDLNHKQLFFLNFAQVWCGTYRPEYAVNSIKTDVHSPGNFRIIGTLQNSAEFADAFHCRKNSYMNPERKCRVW
Test: Met-enkephalin hydrolysis by rat spinal cord slices and membrane preparations, RP-HPLC analysis
Format: biochemical
Details: 10 μM combined with the inhibitors of CPB and DPPIV (10 μM), spinal cord slices, 20 min at 25° C.
Description: FIG. 2-B: […] Retention time) recovered after 20 min. incubation at 25° C. with 1 mg fresh tissue slices in a 1 ml final volume of KRBG buffer. The organs are rapidly removed, dissected on ice, freed of nerve fibers and of adipose tissues and then washed in cold oxygenated glucose- and bicarbonate-containing Krebs Ringer (KRBG) solution, whose composition is the following: 120 mM NaCl-5 mM KCl-1.2 mM KH2PO4-27.5 mM NaHCO3-2.6 mM CaCl2-0.67 mM MgSO4-5.9 mM glucose. The slices of tissues are prepared either manually with the aid of a scalpel (1-2 mm thick), or mechanically with the aid of a “Tissue Chopper” (1 mm thick). Slices are then dispersed into reaction tubes where they are subjected to three successive washes in ice-cold oxygenated KRBG. […] The organs dissected out and washed in ice-cold KRBG are homogenized at 4° C. in 10 volumes (vol./wt.) of 50 mM Tris/HCl buffered at pH 7.2, using a Teflon-glass homogenizer (3×5 sec.). […] The metabolism rate of the NEP-sensitive peptides was measured using the both NEP substrates involved in the signaling of the nociceptive response: the neuropeptides Met-enkephalin and Substance P. […] Their identification and relative quantification (peak height) are checked by continuously monitoring the UV absorbance at 254 nm of column outflow. […]

- inhibition of Met-enkephalinase activity (Met-enkephalin degradation): 80%
SMILES: N=C(N)NCCC[C@H](NC(=O)[C@@H]1CCCN1C(=O)[C@H](CC(N)=O)NC(=O)[C@H](Cc1c[nH]cn1)NC(=O)[C@@H](N)CCC(N)=O)C(=O)O [sialorphin, Gln-His-Asn-Pro-Arg] (H-QHNPR-OH; N-terminus and C-terminus assumed)
